Laboratory results reported in patent US20020137929A1, “1 - (3-heterocyclylphenyl) isothiourea, -isourea, -guanidine and -amidine herbicidal agents” (Intellectual Property Department, BASF Aktiengesellschaft, priority 1998, published 2002).

Legend:
[1] = system: AMBEL (Ragweed, Common); test: Postemergence herbicidal evaluation; type: in vivo, Ambrosia artemisifolia; conditions: postemergence
How it was run: (§1)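 First, seedlings were raised for around two weeks. Next, test material in 50/50 acetone/water containing 0.5% TWEEN 20 was sprayed through a nozzle at 40 psi, equivalent to about 0.0156–0.500 kg/ha. Finally, after 4–5 weeks in the greenhouse, plants were rated 0–9.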

[2] = system: CASOB (Sicklepod); test: Postemergence herbicidal evaluation; type: in vivo, Cassia obtusifolia; conditions: postemergence
How it was run: as §1

[3] = system: GALAP (Galium); test: Postemergence herbicidal evaluation; type: in vivo, Galium aparine; conditions: postemergence
How it was run: as §1

[4] = system: ABUTH (Velvetleaf); test: Preemergence herbicidal evaluation; type: in vivo, Abutilon theophrasti; conditions: rated 4-5 weeks after treatment
How it was run: (§2)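 Test compound, dissolved in aqueous acetone, was sprayed over planted soil cups at an equivalent of about 0.0156 to 0.500 kg/ha; seeds had been mixed with potting soil. Greenhouse growth followed, with visual 0-9 scoring of injury at four to five weeks.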

[5] = system: CASOB (Sicklepod); test: Preemergence herbicidal evaluation; type: in vivo, Cassia obtusifolia; conditions: rated 4-5 weeks after treatment
How it was run: as §2

[6] = system: ECHCG (Barnyardgrass); test: Preemergence herbicidal evaluation; type: in vivo, Echinochloa crus-galli; conditions: rated 4-5 weeks after treatment
How it was run: as §2

[7] = system: GLXMAW (Soybean, Williams); test: Preemergence herbicidal evaluation; type: in vivo, Glycine max, (L.) Merr. cv Williams; conditions: rated 4-5 weeks after treatment
How it was run: as §2

[8] = system: TRZAWR (Wheat, Winter, cv Riband); test: Preemergence herbicidal evaluation; type: in vivo, Triticum aestivum; conditions: rated 4-5 weeks after treatment
How it was run: as §2

[9] = system: ZEAMX (Corn, Field); test: Preemergence herbicidal evaluation; type: in vivo, Zea mays; conditions: rated 4-5 weeks after treatment
How it was run: as §2

[10] = system: MOOVA (Monochoria); test: Preemergence weed control under flooded paddy conditions; type: in vivo, Monochoria vaginalis; conditions: rated 3-4 weeks after treatment
How it was run: (§3)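 First, seeds or propagules go into the top 0.5 cm of silt loam; next, water is held 1.5 to 3 cm over the soil; then compound (50/50 acetone/water) is pipetted into it at about 0.0313 to 0.500 kg/ha; finally plants are rated visually 0-9 after three to four weeks.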

[11] = system: SAGPY (Arrowhead (Pygmaea)); test: as above; type: in vivo, Sagittaria pygmaea; conditions: rated 3-4 weeks after treatment
How it was run: as §3

[12] = system: CYPIR (Rice Flatsedge); test: Postemergence weed control under flooded paddy conditions; type: in vivo, Cyperus iria; conditions: postemergence weeds, 3-4 weeks after treatment
How it was run: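 Herbicidal effect is judged by eye on a 0–9 scale versus control, 3–4 weeks after dosing. Dosing is into flood water kept 1.5–3 cm over the soil, at about 0.0313–0.500 kg/ha in aqueous/acetone 50/50 v/v, on 3–5 cm weeds and 1.5–2.5-leaf rice seedlings.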

## C=CCN1C(=O)CSC1=Nc1cc(N2C(=O)C3=C(CCCC3)C2=O)c(F)cc1Cl [Compound 2, N-{5-[(3-allyl-4-oxo-2-thiazolidinylidene)amino]-4-chloro-2-fluorophenyl}-1-cyclohexene-1,2-dicarboximide]
[1]; rate 0.0157 kg/ha
  AMBEL herbicidal rating: 4.0
[1]; rate 0.0313 kg/ha
  AMBEL herbicidal rating: 2.0
[1]; rate 0.0625 kg/ha
  AMBEL herbicidal rating: 6.0
[1]; rate 0.1250 kg/ha
  AMBEL herbicidal rating: 2.0
[1]; rate 0.2500 kg/ha
  AMBEL herbicidal rating: 6.0
[1]; rate 0.5000 kg/ha
  AMBEL herbicidal rating: 9.0
[2]; rate 0.0157 kg/ha
  CASOB herbicidal rating: 4.0
[2]; rate 0.0313 kg/ha
  CASOB herbicidal rating: 4.0
[2]; rate 0.0625 kg/ha
  CASOB herbicidal rating: 2.0
[2]; rate 0.1250 kg/ha
  CASOB herbicidal rating: 2.0
[2]; rate 0.2500 kg/ha
  CASOB herbicidal rating: 4.0
[2]; rate 0.5000 kg/ha
  CASOB herbicidal rating: 7.0
[3]; rate 0.0157 kg/ha
  GALAP herbicidal rating: 4.0
[3]; rate 0.0313 kg/ha
  GALAP herbicidal rating: 8.0
[3]; rate 0.0625 kg/ha
  GALAP herbicidal rating: 4.0
[3]; rate 0.1250 kg/ha
  GALAP herbicidal rating: 4.0
[3]; rate 0.2500 kg/ha
  GALAP herbicidal rating: 4.0
[3]; rate 0.5000 kg/ha
  GALAP herbicidal rating: 4.0
[4]; rate 0.0313 kg/ha
  ABUTH preemergence herbicidal rating: 0.0
[4]; rate 0.0625 kg/ha
  ABUTH preemergence herbicidal rating: 0.0
[4]; rate 0.5000 kg/ha
  ABUTH preemergence herbicidal rating: 4.0
[5]; rate 0.0313 kg/ha
  CASOB preemergence herbicidal rating: 2.0
[5]; rate 0.0625 kg/ha
  CASOB preemergence herbicidal rating: 2.0
[5]; rate 0.5000 kg/ha
  CASOB preemergence herbicidal rating: 2.0
[6]; rate 0.0313 kg/ha
  ECHCG preemergence herbicidal rating: 0.0
[6]; rate 0.0625 kg/ha
  ECHCG preemergence herbicidal rating: 0.0
[6]; rate 0.1250 kg/ha
  ECHCG preemergence herbicidal rating: 4.0
[6]; rate 0.2500 kg/ha
  ECHCG preemergence herbicidal rating: 0.0
[6]; rate 0.5000 kg/ha
  ECHCG preemergence herbicidal rating: 8.0
[7]; rate 0.0313 kg/ha
  GLXMAW preemergence herbicidal rating: 0.0
[7]; rate 0.0625 kg/ha
  GLXMAW preemergence herbicidal rating: 0.0
[7]; rate 0.1250 kg/ha
  GLXMAW preemergence herbicidal rating: 0.0
[7]; rate 0.2500 kg/ha
  GLXMAW preemergence herbicidal rating: 0.0
[7]; rate 0.5000 kg/ha
  GLXMAW preemergence herbicidal rating: 1.0
[8]; rate 0.0313 kg/ha
  TRZAWR preemergence herbicidal rating: 0.0
[8]; rate 0.0625 kg/ha
  TRZAWR preemergence herbicidal rating: 0.0
[8]; rate 0.1250 kg/ha
  TRZAWR preemergence herbicidal rating: 0.0
[8]; rate 0.2500 kg/ha
  TRZAWR preemergence herbicidal rating: 0.0
[8]; rate 0.5000 kg/ha
  TRZAWR preemergence herbicidal rating: 0.0
[9]; rate 0.0313 kg/ha
  ZEAMX preemergence herbicidal rating: 0.0
[9]; rate 0.0625 kg/ha
  ZEAMX preemergence herbicidal rating: 0.0
[9]; rate 0.1250 kg/ha
  ZEAMX preemergence herbicidal rating: 0.0
[9]; rate 0.2500 kg/ha
  ZEAMX preemergence herbicidal rating: 0.0
[9]; rate 0.5000 kg/ha
  ZEAMX preemergence herbicidal rating: 0.0
[10]; 0.0313 kg/ha
  Herbicidal rating MOOVA: 4.0
[10]; 0.0625 kg/ha
  Herbicidal rating MOOVA: 9.0
[10]; 0.1250 kg/ha
  Herbicidal rating MOOVA: 9.0
[10]; 0.2500 kg/ha
  Herbicidal rating MOOVA: 9.0
[10]; 0.5000 kg/ha
  Herbicidal rating MOOVA: 9.0
[11]; 0.0313 kg/ha
  Herbicidal rating SAGPY: 0.0
[11]; 0.0625 kg/ha
  Herbicidal rating SAGPY: 0.0
[11]; 0.1250 kg/ha
  Herbicidal rating SAGPY: 0.0
[11]; 0.2500 kg/ha
  Herbicidal rating SAGPY: 0.0
[11]; 0.5000 kg/ha
  Herbicidal rating SAGPY: 0.0
[12]; rate 0.0313 kg/ha
  Herbicidal rating CYPIR: 0.0
[12]; rate 0.0625 kg/ha
  Herbicidal rating CYPIR: 0.0
[12]; rate 0.1250 kg/ha
  Herbicidal rating CYPIR: 0.0
[12]; rate 0.2500 kg/ha
  Herbicidal rating CYPIR: 1.0
[12]; rate 0.5000 kg/ha
  Herbicidal rating CYPIR: 4.0

## CCC1SC(=Nc2cc(N3C(=O)C4=C(CCCC4)C3=O)c(F)cc2Cl)N(C)C1=O (centres unmarked) [Compound 6, N-{4-chloro-5-[(5-ethyl-3-methyl-4-oxo-2-thiazolidinylidene)amino]-2-fluorophenyl}-1-cyclohexene-1,2-dicarboximide]
[1]; rate 0.0157 kg/ha
  AMBEL herbicidal rating: 2.0
[1]; rate 0.0313 kg/ha
  AMBEL herbicidal rating: 2.0
[1]; rate 0.0625 kg/ha
  AMBEL herbicidal rating: 2.0
[1]; rate 0.1250 kg/ha
  AMBEL herbicidal rating: 4.0
[1]; rate 0.2500 kg/ha
  AMBEL herbicidal rating: 4.0
[1]; rate 0.5000 kg/ha
  AMBEL herbicidal rating: 4.0
[2]; rate 0.0157 kg/ha
  CASOB herbicidal rating: 0.0
[2]; rate 0.0313 kg/ha
  CASOB herbicidal rating: 0.0
[2]; rate 0.0625 kg/ha
  CASOB herbicidal rating: 0.0
[2]; rate 0.1250 kg/ha
  CASOB herbicidal rating: 0.0
[2]; rate 0.2500 kg/ha
  CASOB herbicidal rating: 2.0
[2]; rate 0.5000 kg/ha
  CASOB herbicidal rating: 6.0
[3]; rate 0.0157 kg/ha
  GALAP herbicidal rating: 0.0
[3]; rate 0.0313 kg/ha
  GALAP herbicidal rating: 0.0
[3]; rate 0.0625 kg/ha
  GALAP herbicidal rating: 0.0
[3]; rate 0.1250 kg/ha
  GALAP herbicidal rating: 2.0
[3]; rate 0.2500 kg/ha
  GALAP herbicidal rating: 7.0
[3]; rate 0.5000 kg/ha
  GALAP herbicidal rating: 9.0
[4]; rate 0.1250 kg/ha
  ABUTH preemergence herbicidal rating: 0.0
[4]; rate 0.2500 kg/ha
  ABUTH preemergence herbicidal rating: 0.0
[4]; rate 0.5000 kg/ha
  ABUTH preemergence herbicidal rating: 0.0
[5]; rate 0.1250 kg/ha
  CASOB preemergence herbicidal rating: 0.0
[5]; rate 0.2500 kg/ha
  CASOB preemergence herbicidal rating: 0.0
[5]; rate 0.5000 kg/ha
  CASOB preemergence herbicidal rating: 0.0
[6]; rate 0.1250 kg/ha
  ECHCG preemergence herbicidal rating: 0.0
[6]; rate 0.2500 kg/ha
  ECHCG preemergence herbicidal rating: 0.0
[6]; rate 0.5000 kg/ha
  ECHCG preemergence herbicidal rating: 2.0
[8]; rate 0.1250 kg/ha
  TRZAWR preemergence herbicidal rating: 0.0
[8]; rate 0.2500 kg/ha
  TRZAWR preemergence herbicidal rating: 0.0
[8]; rate 0.5000 kg/ha
  TRZAWR preemergence herbicidal rating: 0.0
[9]; rate 0.1250 kg/ha
  ZEAMX preemergence herbicidal rating: 0.0
[9]; rate 0.2500 kg/ha
  ZEAMX preemergence herbicidal rating: 0.0
[9]; rate 0.5000 kg/ha
  ZEAMX preemergence herbicidal rating: 0.0
[10]; 0.0313 kg/ha
  Herbicidal rating MOOVA: 2.0
[10]; 0.0625 kg/ha
  Herbicidal rating MOOVA: 8.0
[10]; 0.1250 kg/ha
  Herbicidal rating MOOVA: 8.0
[10]; 0.2500 kg/ha
  Herbicidal rating MOOVA: 9.0
[10]; 0.5000 kg/ha
  Herbicidal rating MOOVA: 9.0
[11]; 0.0313 kg/ha
  Herbicidal rating SAGPY: 0.0
[11]; 0.0625 kg/ha
  Herbicidal rating SAGPY: 0.0
[11]; 0.1250 kg/ha
  Herbicidal rating SAGPY: 0.0
[11]; 0.2500 kg/ha
  Herbicidal rating SAGPY: 0.0
[11]; 0.5000 kg/ha
  Herbicidal rating SAGPY: 0.0
[12]; rate 0.0313 kg/ha
  Herbicidal rating CYPIR: 0.0
[12]; rate 0.0625 kg/ha
  Herbicidal rating CYPIR: 1.0
[12]; rate 0.1250 kg/ha
  Herbicidal rating CYPIR: 2.0
[12]; rate 0.2500 kg/ha
  Herbicidal rating CYPIR: 3.0
[12]; rate 0.5000 kg/ha
  Herbicidal rating CYPIR: 3.5
